The values that follow come from ChEMBL document CHEMBL5543154, “Structural Elucidation and Antiviral Activity of Covalent Cathepsin L Inhibitors” (J Med Chem, 2024).

The target of data set [1] is Procathepsin L (Homo sapiens) (UniProt P07711). Description: Binding affinity to Cathepsin L (unknown origin) expressed in Komagataella pastoris GS115 assessed as thermal stabilization by mesuring melting temperature by nanoDSF analysis. On the technique in general: In DSF a fluorescence change marks the thermal transition of the protein.
Procathepsin L (Homo sapiens), sequence (P07711 114-333 limits assumed): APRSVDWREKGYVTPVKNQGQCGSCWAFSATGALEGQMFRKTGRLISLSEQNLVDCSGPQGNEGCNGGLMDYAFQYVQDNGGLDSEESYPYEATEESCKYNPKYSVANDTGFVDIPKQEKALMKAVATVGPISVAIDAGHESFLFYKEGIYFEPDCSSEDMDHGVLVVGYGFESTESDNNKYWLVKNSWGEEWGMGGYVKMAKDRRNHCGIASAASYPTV
For data set [2], the system named is SARS-CoV-2. Description: Antiviral activity against SARS CoV-2 USA-WA1/2020 infected in african green monkey Vero 76 cells assessed as virus-induced cytopathic effect incubated for 5 days by neutral red uptake assay. Format: functional, organism-based. Conditions: Severe acute respiratory syndrome coronavirus 2, USA-WA1/2020, Vero 76, 120 h.
The nature of data set [3]: Cytotoxicity against african green monkey Vero 76 cells assessed as reduction in cell viability incubated for 48 hrs by neutral red uptake assay. Conditions: chlorocebus sabaeus. Format: toxicity, cell-based.
Data set [4] concerns SARS-CoV-2. Format: functional, Severe acute respiratory syndrome coronavirus 2, Omicron, Vero. Conditions: dose 100 nM; time 24 hrs.

For orientation: ΔTm means the shift of the melting midpoint relative to a reference. `CN(C)C(=O)C(Cc1ccccc1)NC(=O)[C@H]1O[C@@H]1C(=O)NCCc1ccccn1` (relative stereo): the ΔTm in data set [1] worked out at 12 °C.

Broadly, the EC50 is the concentration at which the effect is half-maximal. By CC50 is commonly meant the concentration at which the toxic effect on the cells reaches its halfway point. On to `CCCC(NC(=O)C(CC(C)C)NC(=O)OCc1ccccc1)C(=O)C(=O)NCc1ccccn1` (centres undefined), for which, in the data set on SARS-CoV-2 [2], the concentration for a half-maximal effect (EC50) was < 1 µM. In addition, the CC50 at 48 h in data set [3] was > 50 µM. The Activity in the data set with SARS-CoV-2 [4] was 50%.
